Measurements reported in patent publication EP0751957B1, “PEPTIDE FRAGMENTS OF MICROBIAL STRESS PROTEINS AND PHARMACEUTICAL COMPOSITION MADE THEREOF FOR THE TREATMENT AND PREVENTION OF INFLAMMATORY DISEASES” (priority 1994, dated 2004).
Entries after “also recorded” stand apart in the source; their conditions may differ.

How the values were obtained:
[1] = tested on: Peptide-specific T cell lines; assay: T cell proliferation assay, peptide-specific T cell lines from peptide-immunised rats; format: cell-based, Lewis rats; settings: for CPM T Cell Line: in vitro peptide 10 µg/ml
Procedure: (§1) T cell proliferation assays: PLNC were cultured in triplicate in 200 µl flat bottom microtitre wells (Costar) at 2 x 10^5 cells per well with or without antigen. In initial experiments PLNC were tested for responsiveness to individual peptides at concentrations of 5 and 20 µg/ml, and Mt, hsp65 and PPD over a range of concentrations. Concanavalin A (2 µg/ml) was used as a positive control for T cell proliferation. Cultures were incubated for 96 h at 37°C in a humidified atmosphere of 5% CO2. Cultures were pulsed for the final 16 h with [^3H] TdR (Amersham, U.K., 1 uCi/well) and TdR uptake measured using a liquid scintillation β counter. Assays using T cell lines were performed as above using 2 x 10^4 line cells per well with irradiated (30 Gy) syngeneic accessory cells (either 3 x 10^5 splenocytes/well or 10^6 thymocytes/well). Results are expressed as mean counts per minute (cpm) of triplicate cultures. In experiments where responses to Ag were low, responses were considered significant if the stimulation index (S.I. = mean cpm with Ag - mean cpm without Ag) was greater than two and Student's t tests gave p < 0.01.
T cell lines: T cell lines with specificity for mycobacterial hsp65 or peptides were generated by bulk stimulation of either hsp65-PLNC or Mt-PLNC. PLNC were cultured at 5 x 10^6/ml in culture medium supplemented with 2% normal rat serum (NRS) in the presence of 10 µg/ml Ag. After three days viable cells were harvested using a ficoll-isopaque gradient and cultured for a further four days in culture medium + 5% FCS and 5% TCGF (Con A-activated rat spleen supernatant). Seven days after initial stimulation lines were restimulated with irradiated spleen accessory cells and 10 µg/ml Ag in culture medium + NRS. Lines were maintained ir. this seven day restimulation cycle. Short term epitope-specific T cell lines were also generated from rats immunised with synthetic peptides. Peptide-PLNC were cultured as above in the presence of 10 µg/ml peptide.
Bulk stimulation generated T cell lines to eight of the nine peptides tested. These eight lines were tested for specificity after four in vitro restimulations (Table II). All responded to the immunising peptide and, to some extent, to hsp65.
(§2) T cell responses by immunisation with hsp65 peptides. Rats were immunised with synthetic peptides containing individual hsp65 epitopes (100 µg peptide/DDA per rat). Ten days later PLNC were isolated and tested for responses to overlapping peptides (20 µg/ml). Peptide-specific T cell lines were generated by bulk in vitro stimulation of PLNC with immunising peptide. Lines were tested for responses to overlapping peptides (10 µg/ml). […] Results are expressed as mean cpm of triplicate cultures. All SEM were less than 20%.

T cell = T cell proliferative responses in humans (initial testing); format: cell-based; settings: some autoimmune disease patients
From the text: Thus, already the rat-defined T cell epitopes themselves could be used for therapeutical intervention in some individuals (certain HLA types).

adjuvant arthritis = assay: Adjuvant arthritis (AA) induced with Mt in IFA, clinical arthritis score; format: in vivo, Lewis rats
Procedure: (§3) Induction and clinical assessment of experimental arthritis: Arthritis was induced by a single intradermal injection in the base of the tail. AA was induced with 0.5 mg Mt suspended in 100 µl IFA. CP20961 arthritis was induced with 2 mg CP20961 in 100 µl light mineral oil (Sigma). Rats were examined daily for clinical signs of arthritis. Severity of arthritis was assessed by scoring each paw from zero to four based on degree of swelling, erythema and deformity of the joints. Thus the maximum possible arthritis score was 16.
(§4) Modulation of arthritis with hsp65 peptides and epitope-specific T cell lines: Synthetic peptides corresponding to eight T cell epitopes present in mycobacterial hsp65 were tested for protective effects on arthritis development. Rats were immunised with 100 µg of individual peptide seven days prior to arthritis induction. Peptides were immunised in each hind footpad in 10 mg/ml DDA (50 µl/pad). Control rats received only PBS/DDA. Epitope-specific T cell lines were also tested for protective activity by intravenous administration of lines at the time of arthritis induction. T cell lines were restimulated in vitro with irradiated spleen APC and specific peptide. Four days later T cell blasts were harvested by ficoll gradient, washed and applied to a second ficoll gradient to remove any contaminating APC. T cells were washed twice in wash medium and twice in PBS and finally suspended at 2.5x10^7/ml in PBS. Immediately prior to injection of Mt, 200 µl (i.e. 5x10^6) T cells were injected i.v. in the tail vein.
The effects of preimmunisation with synthetic peptides containing individual epitopes on the development of AA were analysed (Fig. 7). The eight peptides which primed for epitope specific T cells were tested. Rats were immunised with 100 µg of peptide 7 days prior to AA-induction with Mt.

hsp65-PLNC = assay: T cell proliferation assay, hsp65-PLNC; format: cell-based, Lewis rats; settings: PLNC from hsp65-immunised rats; peptides 5 and 20 µg/ml
Procedure: Immunisations and primed lymph node populations: Rats were immunised with either Mt or hsp65. Mt was suspended at 5 mg/ml in IFA or DDA and 100 µl injected in each hind footpad (i.e. 500 µg/footpad, 1 mg/rat). Hsp65 (1 mg/ml in PBS) was mixed 1:1 with DDA and 100 µl injected (i.e. 50 µg/footpad, 100 µg/rat). Ten to 21 days later, draining popliteal lymph nodes were removed, disaggregated, washed three times and used as a source of primed lymph node cells (PLNC). In control experiments splenocytes and lymph nodes from unimmunised rats and PLNC from rats immunised with IFA or DDA/PBS alone were used.
as §1
Hsp65-PLNC were analysed for responsiveness to a panel of peptides covering the entire sequence of hsp65 (Fig. 3a). […] In terms of magnitude of response, three regions of the molecule (residues 176-190, 211-230 and 221-240) appeared to contain the "dominant" T cell epitopes, while regions 86-100. 251-270, 396-410 and 506-525 contained "subdominant" or minor epitopes.

[2] = tested on: primed lymph node cells (PLNC); assay: T cell proliferation assay, PLNC from peptide-immunised rats; format: cell-based, Lewis rats; settings: in vitro peptide 20 µg/ml
Procedure: (§5) Immunisations with synthetic peptides and primed lymph node populations: Rats were immunised with 50 µg of synthetic peptide in PBS/DDA in each hind footpad (i.e. 50 µg/footpad, 100 µg/rat). Ten days later, draining popliteal lymph nodes were removed, disaggregated, washed three times and used as a source of primed lymph node cells (PLNC). In some experiments, PLNC were derived as pooled inguinal and popliteal lymph nodes from AA rats 35-42 days post Mt immunisation.
as §1
To determine whether immunisation of rats with synthetic peptides was effective at priming for T cell reactivity to hsp65 epitopes, in vitro proliferative responses following immunisation with 100 µg of peptide each containing individual T cell epitopes were examined. PLNC isolated ten days after immunisation were tested for response to the immunising peptide, overlapping peptides and to hsp65 (Table II). PLNC responses were observed after immunisation with seven of the nine peptides. Responses were not seen after immunisation with peptides 386-400 and 511-525.
as §2

[3] = tested on: PLNC from preimmunised rats; assay: T cell proliferation assay, PLNC of peptide-preimmunised AA rats 42 days after Mt; format: cell-based, Lewis rats; settings: rats preimmunised with the same peptide; peptide 20µg/ml
Procedure: as §5, §1
PLNC from preimmunised rats were tested for responsiveness to hsp65 epitopes 42 days after Mt administration (Fig. 8). […] Responses to peptide 176-190 containing the AA-associated epitope were found in all PLNC populations (and enhanced after 176-190 preimmunisation) with one exception.

[4] = tested on: CP20961-induced arthritis; assay: CP20961-induced arthritis, clinical arthritis score; format: in vivo, Lewis rats; settings: 100 µg peptide in DDA 7 days prior to 2 mg CP20961 in 100 µl mineral oil i.d.
Procedure: as §3
as §4, with “T cells were washed twice in wash medium and twice in PBS and finally suspended at 2.5x10^7/ml in PBS. Immediately prior to injection of Mt, 200 µl (i.e. 5x10^6) T cells were injected i.v. in the tail vein.” left out

[5] = tested on: T cell lines generated from hsp65-immunised rats; assay: T cell proliferation assay, epitope-specific T cell lines generated from hsp65-immunised rats; format: cell-based, Lewis rats; settings: Line H.52
Procedure: as §1, with “In experiments where responses to Ag were low, responses were considered significant if the stimulation index (S.I. = mean cpm with Ag - mean cpm without Ag) was greater than two and Student's t tests gave p < 0.01.” left out
T cell lines were generated by restimulation of hsp65-PLNC with individual synthetic peptides. For epitopes where responses had been detected to two overlapping peptides, the line was generated using the peptide that induced strongest proliferation of hsp65-PLNC (e.g. for epitope 216-225, peptide 211-225 was used). […]

[6] = 100 µg peptide in DDA, hind footpads, 7 days prior to AA induction with Mt

peptide 86-100: synthetic 15mer, sequence 86-100 of SEQ ID No.1 (mycobacterial hsp65) (DGTTTATVLAQALVR; UniProt P9WPE7 86-100, looked up, fragment)
CPM T Cell Line ([1]; T cell line from 86-100-immunised PLNC): 49422 cpm
T cell proliferative responses in autoimmune disease patients (T cell): capable of inducing T cell proliferative responses
protection against AA development after peptide preimmunisation (adjuvant arthritis; [6]): moderate protection; also recorded: moderate effect
hsp65-PLNC proliferative response to peptide (hsp65-PLNC): subdominant
CPM PLNC ([2]; PLNC 10 days after immunisation with peptide 86-100 (100 µg/DDA), mean of triplicates): 57925 cpm

peptide 211-225: synthetic 15mer, residues 211-225 of mycobacterial hsp65; control peptide in arthritis models
CPM T Cell Line ([1]; T cell line from 211-225-immunised PLNC): 121978 cpm
protection against AA development after peptide preimmunisation (adjuvant arthritis; [6]): did not influence AA development
PLNC response to the immunising peptide 42 days after Mt administration [3]: strong responses
CPM PLNC ([2]; PLNC 10 days after immunisation with peptide 211-225 (100 µg/DDA)): 39765 cpm
protection against CP20961-induced arthritis after peptide preimmunisation [4]: did not

peptide 256-270: synthetic 15mer, sequence 256-270 of SEQ ID No.1 (mycobacterial hsp65)
CPM T Cell Line ([1]; T cell line from 256-270-immunised PLNC): 69037 cpm
response of the line generated against M.256-270 (line P.m52) ([1]; irradiated syngeneic spleen APC): responded
level of proliferation relative to the rat peptide [5]: five to ten fold higher
T cell proliferative responses in autoimmune disease patients (T cell): capable of inducing T cell proliferative responses
protection against AA development after peptide preimmunisation (adjuvant arthritis; [6]): striking protective effect; also recorded: strong protection; also recorded: clear protective effects
mean maximum arthritis score (adjuvant arthritis; 100 µg peptide in DDA, hind footpads, 7 days prior to AA induction with Mt, 24 rats in five experiments, maximum possible score 16): 1.7
protection against AA development after peptide preimmunisation (adjuvant arthritis; 100 µg peptide in DDA, hind footpads, 7 days prior to AA induction with Mt, listed as hsp65 256-270): Protection was observed
rats that developed clinical signs of arthritis (adjuvant arthritis; of the 24 rats preimmunised with peptide, signs milder than in control rats): twelve
permanent joint deformities (adjuvant arthritis; preimmunised rats that developed AA): remarkably free of permanent deformities
PLNC response to the immunising peptide 42 days after Mt administration [3]: marginal PLNC responses
CPM PLNC ([2]; PLNC 10 days after immunisation with peptide 256-270 (100 µg/DDA)): 16423 cpm
protection against CP20961-induced arthritis after peptide preimmunisation [4]: strongly protected
